Test results as given in patent US11548900B2, “Oxazino-quinazoline and oxazino-quinoline type compound, preparation method and uses thereof” (BEIJING SCITECH-MQ PHARMACEUTICALS LIMITED, priority 2018, dated 2023).

Tests used:
HER2 kinase = HER2 kinase (Homo sapiens (Human), UniProt P04626); test: Inhibition of HER2 kinase activity (ULight-labeled PolyGT substrate); format: biochemical; details: HER2 kinase 10 nM, ATP 10 μM, 2 hours
Outline: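 HER2 kinase at 10 nM with 10 μM ATP and 100 nM ULight-PolyGT, 5 min enzyme–compound preincubation, then 2 h reaction at room temperature in the dark. Compounds at 11 3-fold concentrations, 2.5 μM top to 0.042 nM, 1% DMSO, duplicates. TR-FRET 665/615 ratio; IC50 from inhibition versus DMSO and no-compound controls.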

EGFR kinase = EGFR kinase (Homo sapiens (Human), UniProt P00533); test: Inhibition of EGFR kinase activity (ULight-labeled JAK-1 (Tyr1023) peptide substrate); format: biochemical; details: EGFR kinase 0.35 nM, ATP 150 μM, 2 hours
EGFR kinase, sequence (P00533 25-1210): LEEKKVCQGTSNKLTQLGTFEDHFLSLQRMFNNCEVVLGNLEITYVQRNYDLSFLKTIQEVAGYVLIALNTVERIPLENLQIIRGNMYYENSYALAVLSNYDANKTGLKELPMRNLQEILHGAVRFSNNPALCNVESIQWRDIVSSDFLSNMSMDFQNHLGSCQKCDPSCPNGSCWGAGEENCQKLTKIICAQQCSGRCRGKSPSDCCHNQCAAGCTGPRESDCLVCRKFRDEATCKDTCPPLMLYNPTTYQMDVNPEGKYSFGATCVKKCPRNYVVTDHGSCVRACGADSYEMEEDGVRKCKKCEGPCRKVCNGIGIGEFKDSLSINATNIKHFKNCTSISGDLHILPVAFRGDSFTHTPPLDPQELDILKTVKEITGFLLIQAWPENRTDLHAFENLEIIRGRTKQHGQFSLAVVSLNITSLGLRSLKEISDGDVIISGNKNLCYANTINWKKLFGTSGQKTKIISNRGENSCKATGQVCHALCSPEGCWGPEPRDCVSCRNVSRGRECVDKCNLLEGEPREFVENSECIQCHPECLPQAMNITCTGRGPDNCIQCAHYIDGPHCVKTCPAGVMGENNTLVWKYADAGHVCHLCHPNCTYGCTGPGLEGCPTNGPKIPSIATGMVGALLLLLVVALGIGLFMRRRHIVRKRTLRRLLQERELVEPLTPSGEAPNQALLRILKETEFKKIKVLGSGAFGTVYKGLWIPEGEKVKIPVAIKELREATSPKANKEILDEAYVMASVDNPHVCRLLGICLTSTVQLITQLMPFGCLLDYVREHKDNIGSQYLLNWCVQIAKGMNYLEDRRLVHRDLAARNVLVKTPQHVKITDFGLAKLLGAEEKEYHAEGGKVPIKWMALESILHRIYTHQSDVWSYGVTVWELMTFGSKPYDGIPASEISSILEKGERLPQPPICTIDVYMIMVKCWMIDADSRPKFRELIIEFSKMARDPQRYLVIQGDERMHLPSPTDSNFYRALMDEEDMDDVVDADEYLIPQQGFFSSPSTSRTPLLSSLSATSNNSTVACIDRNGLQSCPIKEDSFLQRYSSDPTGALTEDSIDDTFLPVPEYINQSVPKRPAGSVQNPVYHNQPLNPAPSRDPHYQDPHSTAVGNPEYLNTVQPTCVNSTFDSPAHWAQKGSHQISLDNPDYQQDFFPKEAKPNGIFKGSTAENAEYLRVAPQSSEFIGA
Outline: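 TR-FRET kinase assay: 0.35 nM EGFR, 150 μM ATP, 100 nM substrate, 2 h at room temperature in the dark after 5 min enzyme-compound preincubation, 1% DMSO. Compounds tested as 11-point 3-fold series, 2.5 μM to 0.042 nM final, duplicate; IC50 from 665/615 nm ratio-based inhibition.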

HCC827 cells = test: Inhibition of cell proliferation, HCC827 (CCK-8, 72 h); format: cell-based; details: Homo sapiens, 72 h incubation
Outline: (§1)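 BT474 and HCC827 seeded at 10,000 and 3000 cells/well respectively, cultured overnight, then exposed to 10-point 3-fold compound dilutions (top stock 10 mM; 0.25% DMSO final) for 72 h. Viability by CCK-8, OD450; survival normalised to untreated and cell-free blanks, IC50 from curve fit.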

BT474 cells = test: Inhibition of cell proliferation, BT474 (CCK-8, 72 h); format: cell-based; details: Homo sapiens, BT-474, 72 h incubation
Outline: as §1

HER2 kinase, sequence (P04626 23-1255): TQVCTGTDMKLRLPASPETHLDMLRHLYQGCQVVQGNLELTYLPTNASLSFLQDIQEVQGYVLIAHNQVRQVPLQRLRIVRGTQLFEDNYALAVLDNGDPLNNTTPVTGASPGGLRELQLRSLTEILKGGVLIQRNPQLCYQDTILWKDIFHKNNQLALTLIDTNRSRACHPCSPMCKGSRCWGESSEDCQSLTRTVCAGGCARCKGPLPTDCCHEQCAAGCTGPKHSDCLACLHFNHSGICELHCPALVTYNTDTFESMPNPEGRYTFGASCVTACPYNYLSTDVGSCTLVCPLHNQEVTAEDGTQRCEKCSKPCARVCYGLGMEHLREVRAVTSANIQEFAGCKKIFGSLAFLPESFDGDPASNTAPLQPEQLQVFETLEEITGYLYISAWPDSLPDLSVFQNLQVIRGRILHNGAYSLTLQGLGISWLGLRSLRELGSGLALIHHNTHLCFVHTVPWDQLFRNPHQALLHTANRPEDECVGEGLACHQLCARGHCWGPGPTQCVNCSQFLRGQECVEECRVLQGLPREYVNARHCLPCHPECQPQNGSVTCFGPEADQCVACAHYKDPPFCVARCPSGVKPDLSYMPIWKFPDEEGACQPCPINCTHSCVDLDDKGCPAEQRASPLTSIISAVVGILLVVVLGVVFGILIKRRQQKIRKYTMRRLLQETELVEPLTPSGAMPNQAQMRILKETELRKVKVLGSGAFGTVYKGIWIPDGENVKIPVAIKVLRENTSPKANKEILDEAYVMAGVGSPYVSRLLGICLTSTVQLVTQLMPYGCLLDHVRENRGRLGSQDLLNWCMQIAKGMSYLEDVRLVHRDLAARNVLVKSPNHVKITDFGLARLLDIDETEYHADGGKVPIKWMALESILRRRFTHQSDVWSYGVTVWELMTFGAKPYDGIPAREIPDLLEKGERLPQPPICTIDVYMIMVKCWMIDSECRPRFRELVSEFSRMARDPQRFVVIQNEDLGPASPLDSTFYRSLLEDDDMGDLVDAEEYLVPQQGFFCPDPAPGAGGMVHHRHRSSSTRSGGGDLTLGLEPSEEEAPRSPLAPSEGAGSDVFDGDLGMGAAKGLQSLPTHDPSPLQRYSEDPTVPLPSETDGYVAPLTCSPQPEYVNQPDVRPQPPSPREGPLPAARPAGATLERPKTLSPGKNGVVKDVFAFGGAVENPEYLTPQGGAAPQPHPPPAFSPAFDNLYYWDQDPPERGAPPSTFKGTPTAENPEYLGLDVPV

| IC50 (HER2 kinase) [nM] | IC50 (EGFR kinase) [nM] | IC50 (HCC827 cells) [nM] | IC50 (BT474 cells) [nM] | Compound |
| --- | --- | --- | --- | --- |
| ≤ 50 | ≤ 50 | 500 to 5000 | ≤ 50 | CCN(CC)C/C=C/C(=O)N1CCOc2c1ccc1ncnc(Nc3ccc(Oc4ccccc4)cc3)c21 [Example 92, (E)-4-(diethylamino)-1-(10-((4-phenoxyphenyl)amino)-2,3-dihydro-4H-[1,4]oxazino[2,3-f]quinazolin-4-yl)but-2-en-1-one] |
| ≤ 50 | ≤ 50 | 500 to 5000 | ≤ 50 | CN(C)C/C=C/C(=O)N1CCOc2c1ccc1ncnc(Nc3ccc(Oc4ccc(F)cc4)cc3)c21 [Example 51, (E)-4-(dimethylamino)-1-(10-((4-(4-fluorophenoxy)phenyl)amino)-2,3-dihydro-4H-[1,4]oxazino[2,3-f]quinazolin-4-yl)but-2-en-1-one] |
| ≤ 50 | ≤ 50 | 50 to 500 | ≤ 50 | O=C(/C=C/CN1CCCCC1)N1CCOc2c1ccc1ncnc(Nc3ccc(Oc4ccccc4)cc3)c21 [Example 93, (E)-1-(10-((4-phenoxyphenyl)amino)-2,3-dihydro-4H-[1,4]oxazino[2,3-f]quinazolin-4-yl)-4-(piperidin-1-yl)but-2-en-1-one] |
| ≤ 50 | ≤ 50 | 500 to 5000 | ≤ 50 | O=C(/C=C/CN1CCCCC1)N1CCOc2c1ccc1ncnc(Nc3ccc(OCc4ccccn4)c(Cl)c3)c21 [Example 107, (E)-1-(10-((3-chloro-4-(pyridin-2-ylmethoxy)phenyl)amino)-2,3-dihydro-4H-[1,4]oxazino[2,3-f]quinazolin-4-yl)-4-(piperidin-1-yl)but-2-en-1-one] |
| ≤ 50 | ≤ 50 | 500 to 5000 | ≤ 50 | O=C(/C=C/CN1CCOCC1)N1CCOc2c1ccc1ncnc(Nc3ccc(Oc4ccccc4)cc3)c21 [Example 94, (E)-4-morpholino-1-(10-((4-phenoxyphenyl)amino)-2,3-dihydro-4H-[1,4]oxazino[2,3-f]quinazolin-4-yl)but-2-en-1-one] |
| ≤ 50 | ≤ 50 | 500 to 5000 | ≤ 50 | CN(C)C/C=C/C(=O)N1CCOc2c1ccc1ncnc(Nc3ccc(OCc4cccc(F)c4)c(F)c3)c21 [Example 69, (E)-4-(dimethylamino)-1-(10-((4-((3-fluorobenzyl)oxy)-3-fluorophenyl)amino)-2,3-dihydro-4H-[1,4]oxazino[2,3-f]quinazolin-4-yl)but-2-en-1-one] |
| ≤ 50 | 50 to 500 | 500 to 5000 | ≤ 50 | CN(C)C/C=C/C(=O)N1CCOc2c1ccc1ncnc(Nc3ccc(Oc4cc(F)ccc4F)cc3)c21 [Example 73, (E)-4-(dimethylamino)-1-(10-((4-(2,5-difluorophenoxy)phenyl)amino)-2,3-dihydro-4H-[1,4]oxazino[2,3-f]quinazolin-4-yl)but-2-en-1-one] |
| ≤ 50 | ≤ 50 | 500 to 5000 | 50 to 500 | CN(C)C/C=C/C(=O)N1CCOc2c1ccc1ncnc(Nc3ccc(Oc4cccc(Cl)c4)cc3)c21 [Example 48, (E)-4-(dimethylamino)-1-(10-((4-(3-chlorophenoxy)phenyl)amino)-2,3-dihydro-4H-[1,4]oxazino[2,3-f]quinazolin-4-yl)but-2-en-1-one] |
| ≤ 50 | ≤ 50 | 50 to 500 | ≤ 50 | CN(C)C/C=C/C(=O)N1CCOc2c1ccc1ncnc(Nc3ccc(OCc4nccs4)cc3)c21 [Example 65, (E)-4-(dimethylamino)-1-(10-((4-(thiazol-2-ylmethoxy)phenyl)amino)-2,3-dihydro-4H-[1,4]oxazino[2,3-f]quinazolin-4-yl)but-2-en-1-one] |
| ≤ 50 | ≤ 50 | 500 to 5000 | ≤ 50 | CN(C)C/C=C/C(=O)N1CCOc2c1ccc1ncnc(Nc3ccc(SCc4ccccc4)cc3)c21 [Example 66, (E)-4-(dimethylamino)-1-(10-((4-(benzylthio)phenyl)amino)-2,3-dihydro-4H-[1,4]oxazino[2,3-f]quinazolin-4-yl)but-2-en-1-one] |
| ≤ 50 | 50 to 500 | 500 to 5000 | ≤ 50 | CN(C)C/C=C/C(=O)N1CCOc2c1ccc1ncnc(Nc3ccc(OCc4ccccn4)cc3)c21 [Example 63, (E)-4-(dimethylamino)-1-(10-((4-(pyridin-2-ylmethoxy)phenyl)amino)-2,3-dihydro-4H-[1,4]oxazino[2,3-f]quinazolin-4-yl)but-2-en-1-one] |
| ≤ 50 | 50 to 500 | 50 to 500 | ≤ 50 | CN(C)C/C=C/C(=O)N1CCOc2c1ccc1ncnc(Nc3ccc(OCc4cccs4)cc3)c21 [Example 64, (E)-4-(dimethylamino)-1-(10-((4-(thiophen-2-ylmethoxy)phenyl)amino)-2,3-dihydro-4H-[1,4]oxazino[2,3-f]quinazolin-4-yl)but-2-en-1-one] |
| ≤ 50 | ≤ 50 | 50 to 500 | ≤ 50 | O=C(/C=C/CN1CCOCC1)N1CCOc2c1ccc1ncnc(Nc3ccc(OCc4cccc(F)c4)c(Cl)c3)c21 [Example 96, (E)-1-(10-((3-chloro-4-((3-fluorobenzyl)oxy)phenyl)amino)-2,3-dihydro-4H-[1,4]oxazino[2,3-f]quinazolin-4-yl)-4-morpholinobut-2-en-1-one] |
